Among the data in ChEMBL document CHEMBL5465560, “Selectivity Literature for EUbOPEN Chemogenomic Library” (2024) are % of control, % of inhibition and dTM values, retold here.

Assay [1] addresses Ribosomal protein S6 kinase alpha-2 (Homo sapiens) (UniProt Q15349). As to conditions: at 10 µM.
Assay [2] concerns the target Proto-oncogene tyrosine-protein kinase Src (Homo sapiens, UniProt P12931). Put plainly: Selectivity interaction (Millipore kinase profiler) EUB0000124b SRC. As to conditions: at 10 µM.
Assay [3] deals with T1, Phosphatidylinositol 4,5-bisphosphate 3-kinase catalytic subunit delta isoform (Homo sapiens) (UniProt O00329).
T1 sequence (whole entry): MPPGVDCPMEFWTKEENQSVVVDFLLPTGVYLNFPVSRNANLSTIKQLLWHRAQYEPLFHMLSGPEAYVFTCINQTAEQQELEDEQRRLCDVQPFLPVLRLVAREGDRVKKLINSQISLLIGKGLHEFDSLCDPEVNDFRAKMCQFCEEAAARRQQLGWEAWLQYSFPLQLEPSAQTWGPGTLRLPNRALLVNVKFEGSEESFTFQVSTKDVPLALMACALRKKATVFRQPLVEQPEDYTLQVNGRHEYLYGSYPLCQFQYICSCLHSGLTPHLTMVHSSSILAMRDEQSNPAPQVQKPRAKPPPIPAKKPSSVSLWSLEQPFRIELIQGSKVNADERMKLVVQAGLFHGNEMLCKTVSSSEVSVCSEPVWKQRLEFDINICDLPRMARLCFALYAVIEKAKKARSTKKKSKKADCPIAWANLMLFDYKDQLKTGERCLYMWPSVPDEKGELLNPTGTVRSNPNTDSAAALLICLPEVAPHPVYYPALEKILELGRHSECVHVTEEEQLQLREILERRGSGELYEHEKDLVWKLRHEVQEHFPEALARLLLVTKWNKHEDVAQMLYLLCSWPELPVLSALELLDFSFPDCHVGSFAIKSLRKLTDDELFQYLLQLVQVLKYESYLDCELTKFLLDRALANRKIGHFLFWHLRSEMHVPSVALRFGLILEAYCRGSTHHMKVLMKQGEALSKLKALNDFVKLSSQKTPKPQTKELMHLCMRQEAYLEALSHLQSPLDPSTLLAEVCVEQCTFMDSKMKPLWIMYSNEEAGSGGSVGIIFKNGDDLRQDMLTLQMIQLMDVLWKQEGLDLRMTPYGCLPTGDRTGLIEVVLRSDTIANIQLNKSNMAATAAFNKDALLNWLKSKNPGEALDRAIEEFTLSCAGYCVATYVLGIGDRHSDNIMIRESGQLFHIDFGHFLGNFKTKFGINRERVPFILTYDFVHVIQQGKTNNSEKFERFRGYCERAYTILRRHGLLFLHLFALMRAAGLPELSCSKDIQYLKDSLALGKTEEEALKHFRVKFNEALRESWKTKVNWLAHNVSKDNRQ
Put plainly: Selectivity interaction (KinomeScan (DiscoverX)) EUB0000092b PIK3CD. As to conditions: at 10 µM.

Assay [4] deals with Cyclin-dependent kinase 13 (Homo sapiens, UniProt Q14004). Put plainly: Selectivity interaction (KinomeScan (DiscoverX)) EUB0000045b CDK13.
Assay [5] addresses Ephrin type-A receptor 7 (Homo sapiens) (UniProt Q15375). Put plainly: Selectivity interaction (LanthaScreen Eu Kinase Binding Assay) EUB0001632a EPHA7. The note with it: at 10 µM.
For assay [6], the target named is Protein-tyrosine kinase 6 (Homo sapiens, UniProt Q13882). Put plainly: Selectivity interaction (KinomeScan (DiscoverX)) EUB0000607a PTK6. The note with it: at 10 µM.
In assay [7] the target is Phosphorylase b kinase gamma catalytic chain, skeletal muscle/heart isoform (Homo sapiens) (UniProt Q16816). Put plainly: Selectivity interaction (Kinase panel (Invitrogen)) EUB0000639a PHKG1. The note with it: at 200 nM.
Assay [8] addresses Serine/threonine-protein kinase WNK1 (Homo sapiens) (UniProt Q9H4A3). The assay is described as follows: Selectivity interaction (Kinase panel (DSF assay)) EUB0001559a WNK1. Background: DSF heats the sample and reads unfolding from a dye or from intrinsic fluorescence.
Assay [9] deals with T2, cAMP-dependent protein kinase catalytic subunit PRKX (Homo sapiens) (UniProt P51817).
T2 sequence (whole entry): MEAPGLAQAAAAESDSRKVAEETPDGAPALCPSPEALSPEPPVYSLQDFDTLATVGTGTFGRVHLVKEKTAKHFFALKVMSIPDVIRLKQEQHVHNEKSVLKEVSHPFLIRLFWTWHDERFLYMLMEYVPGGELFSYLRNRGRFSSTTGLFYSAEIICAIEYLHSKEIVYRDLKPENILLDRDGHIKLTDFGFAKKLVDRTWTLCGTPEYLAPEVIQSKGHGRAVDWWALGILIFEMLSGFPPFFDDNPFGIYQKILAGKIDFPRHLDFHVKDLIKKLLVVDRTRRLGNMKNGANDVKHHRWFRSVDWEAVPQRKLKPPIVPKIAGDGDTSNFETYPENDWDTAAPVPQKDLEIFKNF
The assay is described as follows: Selectivity interaction (KinomeScan (DiscoverX)) EUB0001619a PRKX. The note with it: at 1 µM.

Assay [10] addresses T3, Ephrin type-A receptor 6 (Homo sapiens) (UniProt Q9UF33).
T3 sequence (whole entry): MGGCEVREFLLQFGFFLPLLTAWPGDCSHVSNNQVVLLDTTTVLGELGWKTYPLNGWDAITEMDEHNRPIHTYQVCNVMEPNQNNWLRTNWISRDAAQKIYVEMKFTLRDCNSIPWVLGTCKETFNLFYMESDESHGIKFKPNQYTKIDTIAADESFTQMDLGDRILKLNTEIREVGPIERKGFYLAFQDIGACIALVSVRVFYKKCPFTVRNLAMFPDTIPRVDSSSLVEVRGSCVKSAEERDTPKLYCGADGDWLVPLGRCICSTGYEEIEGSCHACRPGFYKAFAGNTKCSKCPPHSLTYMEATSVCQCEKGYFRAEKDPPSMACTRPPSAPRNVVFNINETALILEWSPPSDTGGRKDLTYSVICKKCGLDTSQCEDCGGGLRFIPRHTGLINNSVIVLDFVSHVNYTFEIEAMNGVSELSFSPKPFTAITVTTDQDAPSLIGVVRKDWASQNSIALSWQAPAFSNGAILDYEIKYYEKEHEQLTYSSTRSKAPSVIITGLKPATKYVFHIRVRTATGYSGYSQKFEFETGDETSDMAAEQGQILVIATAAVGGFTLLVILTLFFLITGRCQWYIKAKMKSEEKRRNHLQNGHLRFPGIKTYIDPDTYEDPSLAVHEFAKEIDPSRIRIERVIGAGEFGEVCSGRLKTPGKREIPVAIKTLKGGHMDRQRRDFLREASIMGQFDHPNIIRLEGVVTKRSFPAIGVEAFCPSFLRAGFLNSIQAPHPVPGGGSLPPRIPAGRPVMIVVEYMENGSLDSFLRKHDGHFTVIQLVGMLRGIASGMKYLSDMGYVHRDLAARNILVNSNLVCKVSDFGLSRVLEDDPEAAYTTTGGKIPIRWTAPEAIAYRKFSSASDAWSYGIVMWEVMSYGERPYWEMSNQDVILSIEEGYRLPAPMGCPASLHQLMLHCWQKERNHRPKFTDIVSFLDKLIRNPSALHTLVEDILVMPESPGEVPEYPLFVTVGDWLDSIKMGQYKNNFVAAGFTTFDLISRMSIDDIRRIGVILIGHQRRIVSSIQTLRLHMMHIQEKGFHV
The assay is described as follows: Selectivity interaction (KinomeScan (DiscoverX)) EUB0000618a EPHA6. The note with it: at 10 µM.

Cyclin-dependent kinase 13, sequence (Q14004 whole entry, looked up): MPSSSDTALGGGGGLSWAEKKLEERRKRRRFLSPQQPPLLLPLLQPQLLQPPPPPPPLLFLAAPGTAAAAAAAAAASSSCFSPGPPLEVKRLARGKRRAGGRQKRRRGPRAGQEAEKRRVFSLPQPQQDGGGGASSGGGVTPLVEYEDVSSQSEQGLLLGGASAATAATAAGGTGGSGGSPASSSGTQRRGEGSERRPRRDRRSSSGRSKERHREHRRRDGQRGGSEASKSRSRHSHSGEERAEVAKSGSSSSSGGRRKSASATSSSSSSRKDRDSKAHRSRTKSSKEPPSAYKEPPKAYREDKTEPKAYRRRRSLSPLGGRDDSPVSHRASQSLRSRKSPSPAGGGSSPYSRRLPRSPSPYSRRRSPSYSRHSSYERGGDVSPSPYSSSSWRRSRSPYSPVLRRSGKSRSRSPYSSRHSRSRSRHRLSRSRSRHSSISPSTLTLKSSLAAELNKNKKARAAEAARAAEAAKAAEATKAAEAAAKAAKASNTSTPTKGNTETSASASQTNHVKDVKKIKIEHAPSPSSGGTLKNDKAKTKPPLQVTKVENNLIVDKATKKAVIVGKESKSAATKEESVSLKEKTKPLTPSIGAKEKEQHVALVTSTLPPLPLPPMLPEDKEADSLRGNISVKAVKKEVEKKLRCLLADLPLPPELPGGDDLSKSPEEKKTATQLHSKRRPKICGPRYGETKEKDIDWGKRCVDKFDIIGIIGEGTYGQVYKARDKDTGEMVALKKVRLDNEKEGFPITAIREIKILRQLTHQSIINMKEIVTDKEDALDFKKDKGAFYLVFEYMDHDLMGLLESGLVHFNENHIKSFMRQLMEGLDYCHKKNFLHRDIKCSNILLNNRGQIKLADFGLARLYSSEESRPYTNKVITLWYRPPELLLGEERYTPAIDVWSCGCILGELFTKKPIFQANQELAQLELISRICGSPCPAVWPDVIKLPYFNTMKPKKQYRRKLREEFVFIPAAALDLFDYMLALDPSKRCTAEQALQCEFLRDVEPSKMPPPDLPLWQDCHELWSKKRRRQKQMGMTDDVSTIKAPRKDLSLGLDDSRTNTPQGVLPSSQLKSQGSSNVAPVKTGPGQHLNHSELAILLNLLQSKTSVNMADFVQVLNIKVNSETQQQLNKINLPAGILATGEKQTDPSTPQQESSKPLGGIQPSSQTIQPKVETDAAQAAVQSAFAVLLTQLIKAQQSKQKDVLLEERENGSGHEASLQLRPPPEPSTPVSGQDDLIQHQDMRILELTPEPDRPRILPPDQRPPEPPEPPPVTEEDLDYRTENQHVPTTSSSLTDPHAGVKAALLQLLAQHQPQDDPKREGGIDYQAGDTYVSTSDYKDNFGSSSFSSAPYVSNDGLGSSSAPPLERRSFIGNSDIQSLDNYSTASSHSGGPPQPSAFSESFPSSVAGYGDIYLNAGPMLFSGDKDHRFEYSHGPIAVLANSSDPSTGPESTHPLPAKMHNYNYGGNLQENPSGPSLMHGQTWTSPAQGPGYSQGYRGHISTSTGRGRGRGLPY
Serine/threonine-protein kinase WNK1 (Homo sapiens), sequence (Q9H4A3 whole entry, looked up): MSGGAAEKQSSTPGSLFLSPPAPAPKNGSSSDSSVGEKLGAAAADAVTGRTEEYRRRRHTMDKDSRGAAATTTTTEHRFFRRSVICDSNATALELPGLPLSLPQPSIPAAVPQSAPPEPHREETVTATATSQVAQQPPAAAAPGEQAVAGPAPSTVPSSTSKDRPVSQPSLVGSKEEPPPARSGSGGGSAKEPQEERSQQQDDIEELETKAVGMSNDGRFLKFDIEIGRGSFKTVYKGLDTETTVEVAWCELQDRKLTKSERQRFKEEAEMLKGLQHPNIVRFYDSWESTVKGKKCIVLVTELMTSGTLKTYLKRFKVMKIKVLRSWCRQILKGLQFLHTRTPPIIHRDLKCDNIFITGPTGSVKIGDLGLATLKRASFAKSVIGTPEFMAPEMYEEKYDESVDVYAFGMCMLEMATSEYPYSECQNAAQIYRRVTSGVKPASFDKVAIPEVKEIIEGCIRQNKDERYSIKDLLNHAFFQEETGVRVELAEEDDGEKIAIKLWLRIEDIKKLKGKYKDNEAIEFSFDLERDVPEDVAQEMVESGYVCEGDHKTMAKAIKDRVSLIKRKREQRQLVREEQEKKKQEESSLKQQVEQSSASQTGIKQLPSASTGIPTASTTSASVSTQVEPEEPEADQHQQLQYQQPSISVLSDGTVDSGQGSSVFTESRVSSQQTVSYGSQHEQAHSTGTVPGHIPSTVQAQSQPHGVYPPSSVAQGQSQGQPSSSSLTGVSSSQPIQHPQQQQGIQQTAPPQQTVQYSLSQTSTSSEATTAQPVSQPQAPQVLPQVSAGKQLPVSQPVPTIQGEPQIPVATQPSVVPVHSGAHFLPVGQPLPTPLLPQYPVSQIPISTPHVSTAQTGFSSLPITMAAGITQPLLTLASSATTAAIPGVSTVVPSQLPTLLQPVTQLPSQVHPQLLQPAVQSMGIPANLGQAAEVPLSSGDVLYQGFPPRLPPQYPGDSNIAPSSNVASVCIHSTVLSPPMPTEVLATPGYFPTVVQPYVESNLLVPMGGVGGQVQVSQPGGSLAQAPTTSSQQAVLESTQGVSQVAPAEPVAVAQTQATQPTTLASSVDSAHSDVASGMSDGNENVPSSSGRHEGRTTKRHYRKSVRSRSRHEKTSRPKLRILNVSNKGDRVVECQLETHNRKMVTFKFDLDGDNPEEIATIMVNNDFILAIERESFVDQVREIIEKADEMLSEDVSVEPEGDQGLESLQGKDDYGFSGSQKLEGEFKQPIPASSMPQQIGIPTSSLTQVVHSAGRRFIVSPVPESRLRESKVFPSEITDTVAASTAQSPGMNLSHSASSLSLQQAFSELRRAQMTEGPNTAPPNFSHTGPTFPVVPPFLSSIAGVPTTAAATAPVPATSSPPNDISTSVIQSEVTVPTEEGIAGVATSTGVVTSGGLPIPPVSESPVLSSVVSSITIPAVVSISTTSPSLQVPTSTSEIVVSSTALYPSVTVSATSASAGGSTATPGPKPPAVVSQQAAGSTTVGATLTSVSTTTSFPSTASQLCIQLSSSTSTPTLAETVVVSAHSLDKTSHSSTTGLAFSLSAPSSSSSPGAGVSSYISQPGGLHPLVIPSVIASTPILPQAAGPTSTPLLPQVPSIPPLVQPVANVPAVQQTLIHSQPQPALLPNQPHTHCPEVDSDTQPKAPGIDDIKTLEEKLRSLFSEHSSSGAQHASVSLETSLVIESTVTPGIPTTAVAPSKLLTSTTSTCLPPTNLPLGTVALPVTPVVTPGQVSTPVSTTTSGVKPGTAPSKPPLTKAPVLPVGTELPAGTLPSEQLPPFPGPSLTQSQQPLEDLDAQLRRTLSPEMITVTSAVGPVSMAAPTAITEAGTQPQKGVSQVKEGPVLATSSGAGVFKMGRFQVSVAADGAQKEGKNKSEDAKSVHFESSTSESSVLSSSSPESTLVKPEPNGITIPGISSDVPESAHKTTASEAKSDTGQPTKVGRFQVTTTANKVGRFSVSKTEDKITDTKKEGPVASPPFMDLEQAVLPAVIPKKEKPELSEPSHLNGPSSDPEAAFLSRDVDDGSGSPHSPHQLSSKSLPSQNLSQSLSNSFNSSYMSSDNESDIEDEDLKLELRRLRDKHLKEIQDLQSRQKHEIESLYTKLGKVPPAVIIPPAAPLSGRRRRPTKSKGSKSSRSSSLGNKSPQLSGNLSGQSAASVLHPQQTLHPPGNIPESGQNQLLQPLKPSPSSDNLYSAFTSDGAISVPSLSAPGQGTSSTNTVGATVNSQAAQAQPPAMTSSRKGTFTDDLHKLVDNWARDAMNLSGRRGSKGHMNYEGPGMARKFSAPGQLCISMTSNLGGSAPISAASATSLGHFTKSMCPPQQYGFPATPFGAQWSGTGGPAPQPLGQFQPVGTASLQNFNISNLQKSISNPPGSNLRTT
Ephrin type-A receptor 7 (Homo sapiens), sequence (Q15375 28-998 limits assumed): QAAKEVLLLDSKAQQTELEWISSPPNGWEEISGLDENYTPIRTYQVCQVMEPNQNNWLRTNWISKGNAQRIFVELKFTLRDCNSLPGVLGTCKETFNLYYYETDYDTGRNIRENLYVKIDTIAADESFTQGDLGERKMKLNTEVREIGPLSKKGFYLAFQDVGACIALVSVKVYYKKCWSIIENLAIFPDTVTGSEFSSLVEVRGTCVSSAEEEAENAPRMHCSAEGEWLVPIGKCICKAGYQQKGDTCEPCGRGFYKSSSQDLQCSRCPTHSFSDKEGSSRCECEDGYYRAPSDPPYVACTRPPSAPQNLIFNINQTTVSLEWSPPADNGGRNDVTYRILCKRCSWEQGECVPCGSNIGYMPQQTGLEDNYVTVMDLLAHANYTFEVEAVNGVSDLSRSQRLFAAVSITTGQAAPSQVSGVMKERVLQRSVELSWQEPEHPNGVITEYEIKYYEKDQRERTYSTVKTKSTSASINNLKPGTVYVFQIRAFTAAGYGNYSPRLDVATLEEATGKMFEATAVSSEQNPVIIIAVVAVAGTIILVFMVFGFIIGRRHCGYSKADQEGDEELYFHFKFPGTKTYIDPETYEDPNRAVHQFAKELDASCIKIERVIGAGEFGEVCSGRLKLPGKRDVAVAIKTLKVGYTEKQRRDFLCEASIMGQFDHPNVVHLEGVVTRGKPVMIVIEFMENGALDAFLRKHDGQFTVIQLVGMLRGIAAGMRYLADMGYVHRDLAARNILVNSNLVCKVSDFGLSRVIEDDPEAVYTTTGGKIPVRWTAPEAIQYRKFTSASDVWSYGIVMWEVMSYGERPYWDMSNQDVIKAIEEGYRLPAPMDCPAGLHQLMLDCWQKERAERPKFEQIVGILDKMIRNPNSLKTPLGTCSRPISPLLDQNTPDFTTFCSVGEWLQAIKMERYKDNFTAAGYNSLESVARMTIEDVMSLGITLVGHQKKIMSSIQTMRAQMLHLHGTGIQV

In the case of `CCN(CC)CCCCNc1ncc2cc(-c3cc(OC)cc(OC)c3)c(NC(=O)NC(C)(C)C)nc2n1`, in [1], the % of control was 100%. Compound `CC(=O)Nc1cccc(-n2c(=O)n(C3CC3)c(=O)c3c(Nc4ccc(I)cc4F)n(C)c(=O)c(C)c32)c1` showed a % of control in assay [2] of 82%. In the case of `CCC(=O)N1CCN(c2ccc(-n3c(=O)ccc4cnc5ccc(-c6cnc7ccccc7c6)cc5c43)cc2C(F)(F)F)CC1`, the % of control in assay [3] stood at 51%.

For the compound `C=CC(=O)Nc1cc(-n2c(=O)ccc3cnc4ccc(-c5ccc(NS(C)(=O)=O)cc5)cc4c32)ccc1C`, the % of control in assay [4] (at 1 µM) and in assay [4] (at 10 µM) was 100% each time.

In the case of `Cn1cc(-n2cnc3c(NCc4nc5cc(Cl)c(Cl)cc5[nH]4)nc(N4CCOCC4)nc32)cn1`, the % of inhibition in assay [5] is -69.8%. With `CNC(=O)Nc1ccc(-c2nc(N3CC4CCC(C3)O4)c3cnn(C4CCC5(CC4)OCCO5)c3n2)cc1`, the % of control in assay [6] came out at 55%. Take `CC[C@@H]1[C@H](F)C(=O)N[C@@H]1COc1nccc2cc(C(N)=O)c(OC)cc12` [ZIMLOVISERTIB]: the % of inhibition in assay [7] is 16.7%.

On to `CN(C(=O)c1cnn2cccnc12)c1cc2c(cc1N1CCOCC1)C(=O)N(C[C@@H](F)C(C)(C)O)C2`, for which the dTM in assay [8] is -0.6 K.

`N#Cc1cccc(-c2c[nH]c3ncnc(N4CCOCC4)c23)c1` gave a % of control in assay [9] of 100%.

As to `O[C@H]1CC[C@H](Nc2ncc3nc(Nc4c(F)cc(F)cc4F)n([C@H]4CCOC4)c3n2)CC1`, the % of control in assay [10] is 79%.
